The values below come from patent US10759751B2, “Substituted spirocyclohexanes as muscarinic M1 receptor and/or M4 receptor agonists” (Heptares Therapeutics Limited, priority 2016, dated 2020).

The term Emax denotes the greatest response seen or fitted, relative to the assay's reference.

The structures appear in SMILES notation.

What all share (type): cell-based
For assay [1], the target named is T1, human muscarinic M1 receptor (Homo sapiens, UniProt P11229).
T1 sequence (P11229 1-460): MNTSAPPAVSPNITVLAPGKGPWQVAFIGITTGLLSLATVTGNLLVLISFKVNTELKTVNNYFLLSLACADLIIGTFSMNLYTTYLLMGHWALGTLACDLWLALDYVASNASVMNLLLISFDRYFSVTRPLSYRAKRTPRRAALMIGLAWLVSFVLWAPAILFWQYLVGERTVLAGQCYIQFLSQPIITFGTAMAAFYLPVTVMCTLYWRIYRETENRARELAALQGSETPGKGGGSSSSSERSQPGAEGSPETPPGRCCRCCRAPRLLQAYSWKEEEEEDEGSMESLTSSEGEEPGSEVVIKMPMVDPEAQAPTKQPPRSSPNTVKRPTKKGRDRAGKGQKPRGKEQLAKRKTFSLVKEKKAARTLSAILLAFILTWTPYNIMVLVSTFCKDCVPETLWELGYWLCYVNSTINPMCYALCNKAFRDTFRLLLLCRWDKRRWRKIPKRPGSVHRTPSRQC
The experiment in a line: Alphascreen Surefire phospho-ERK1/2 functional assay, M1. The conditions noted are these: for EC50: phospho-ERK1/2, read-out: pEC50 M1 (converted); for Emax: CHO, read-out: M1 % Emax cf. ACh, CHO cells stably expressing human M1. In a few lines: (§1)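 Steps: plate CHO cells stably expressing the receptor in MEM-alpha with 10% dialysed FBS; starve overnight; add agonist for 5 min at 37 °C; lyse for 15 min; incubate the lysate with SureFire detection reagents for 2 h; read. The outputs are pEC50 and Emax.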

The target of assay [2] is T2, human muscarinic M4 receptor (Homo sapiens, UniProt P08173).
T2 construct: expressed in transfected cells
T2 sequence (P08173 1-479): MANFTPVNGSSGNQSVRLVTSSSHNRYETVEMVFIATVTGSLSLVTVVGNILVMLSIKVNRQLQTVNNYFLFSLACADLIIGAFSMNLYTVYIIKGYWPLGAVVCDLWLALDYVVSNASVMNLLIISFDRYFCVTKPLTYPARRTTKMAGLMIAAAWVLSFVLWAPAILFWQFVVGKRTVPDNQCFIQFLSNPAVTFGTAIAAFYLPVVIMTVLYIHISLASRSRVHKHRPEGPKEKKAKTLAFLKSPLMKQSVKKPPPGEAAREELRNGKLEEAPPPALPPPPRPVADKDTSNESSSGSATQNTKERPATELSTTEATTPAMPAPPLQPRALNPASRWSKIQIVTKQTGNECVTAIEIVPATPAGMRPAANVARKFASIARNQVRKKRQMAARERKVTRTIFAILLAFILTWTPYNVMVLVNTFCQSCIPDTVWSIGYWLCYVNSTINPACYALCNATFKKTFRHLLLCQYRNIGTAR
Description: Alphascreen Surefire phospho-ERK1/2 functional assay, M4. The conditions noted are these: for EC50: phospho-ERK1/2, read-out: pEC50 M4 (converted); for Emax: CHO, read-out: M4 % Emax cf. ACh, CHO cells stably expressing human M4. In a few lines:
as §1

For assay [3], the target named is T3, human muscarinic M2 receptor (Homo sapiens, UniProt P08172).
T3 sequence (P08172 1-466): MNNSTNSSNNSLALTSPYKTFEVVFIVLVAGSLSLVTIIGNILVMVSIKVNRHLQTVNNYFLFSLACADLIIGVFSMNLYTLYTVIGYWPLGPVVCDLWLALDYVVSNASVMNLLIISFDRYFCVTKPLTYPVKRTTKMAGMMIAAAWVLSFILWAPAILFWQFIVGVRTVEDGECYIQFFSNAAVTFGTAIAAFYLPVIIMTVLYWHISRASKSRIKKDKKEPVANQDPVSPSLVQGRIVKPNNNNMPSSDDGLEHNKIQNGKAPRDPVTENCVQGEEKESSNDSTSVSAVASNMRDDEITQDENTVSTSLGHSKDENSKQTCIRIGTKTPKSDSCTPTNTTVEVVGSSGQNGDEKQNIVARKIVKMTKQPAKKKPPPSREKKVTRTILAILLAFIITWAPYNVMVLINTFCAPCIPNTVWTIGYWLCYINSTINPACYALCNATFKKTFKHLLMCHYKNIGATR
Description: Alphascreen Surefire phospho-ERK1/2 functional assay, M2. As to conditions: for EC50: CHO cells stably expressing human M2, phospho-ERK1/2, read-out: pEC50 M2 (converted); for Emax: CHO, read-out: M2 % Emax cf. ACh. The protocol:
(§2) Functional assays were performed using the Alphascreen Surefire phospho-ERK1/2 assay (Crouch & Osmond, Comb. Chem. High Throughput Screen, 2008). ERK1/2 phosphorylation is a downstream consequence of both Gq/11 and Gi/o protein coupled receptor activation, making it highly suitable for the assessment of M1, M3 (Gq/11 coupled) and M2, M4 receptors (Gi/o coupled), rather than using different assay formats for different receptor subtypes. CHO cells stably expressing the human muscarinic M1, M2, M3 or M4 receptor were plated (25K/well) onto 96-well tissue culture plates in MEM-alpha+10% dialysed FBS. Once adhered, cells were serum-starved overnight. Agonist stimulation was performed by the addition of 5 μL agonist to the cells for 5 min (37° C.). Media was removed and 50 μL of lysis buffer added. After 15 min, a 4 μL sample was transferred to 384-well plate and 7 μL of detection mixture added. Plates were incubated for 2 h with gentle agitation in the dark and then read on a PHERAstar plate reader.
(§3) pEC50 and Emax figures were calculated from the resulting data for each receptor subtype.

In assay [4] the target is T4, human muscarinic M3 receptor (Homo sapiens, UniProt P20309).
T4 construct: expressed in transfected cells
T4 sequence (P20309 whole entry): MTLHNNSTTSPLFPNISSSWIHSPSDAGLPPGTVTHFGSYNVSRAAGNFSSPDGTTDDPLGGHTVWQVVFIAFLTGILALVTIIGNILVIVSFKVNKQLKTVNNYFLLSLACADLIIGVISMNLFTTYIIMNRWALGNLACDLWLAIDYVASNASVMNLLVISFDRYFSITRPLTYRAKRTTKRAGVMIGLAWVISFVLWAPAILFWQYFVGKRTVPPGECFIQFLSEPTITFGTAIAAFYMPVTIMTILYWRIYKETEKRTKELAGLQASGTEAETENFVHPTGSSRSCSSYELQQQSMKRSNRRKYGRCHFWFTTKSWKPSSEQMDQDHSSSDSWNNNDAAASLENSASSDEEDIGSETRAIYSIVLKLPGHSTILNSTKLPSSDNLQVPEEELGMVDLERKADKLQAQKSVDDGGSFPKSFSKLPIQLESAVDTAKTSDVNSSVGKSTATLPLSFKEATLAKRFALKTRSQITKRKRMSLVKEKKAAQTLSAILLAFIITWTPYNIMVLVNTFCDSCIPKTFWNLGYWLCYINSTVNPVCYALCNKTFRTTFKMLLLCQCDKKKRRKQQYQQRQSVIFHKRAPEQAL
The experiment in a line: Alphascreen Surefire phospho-ERK1/2 functional assay, M3. The conditions noted are these: for EC50: CHO cells stably expressing human M3, phospho-ERK1/2, read-out: pEC50 M3 (converted); for Emax: CHO, read-out: M3 % Emax cf. ACh. The protocol: as §2, §3
For orientation: Bead proximity is the source of the signal in Alpha formats.

Where [5] appears, read: CHO cells stably expressing human M1.
The mark [6] stands for this setting: CHO cells stably expressing human M4.

Regarding `CCOC(=O)N[C@H]1CCN(C2CCC(C#N)(c3cccc(OC)c3)CC2)C1` (single isomer, unassigned) [1-11 Isomer 2], the EC50 was 148 nM in assay [1] (setting [5]), greater than 20000 nM in assay [2] (setting [6]), greater than 20000 nM in assay [3] and greater than 20000 nM in assay [4]. Also, the Emax came to 99% in assay [1] (Emax relative to ACh), 9% in assay [2] (Emax relative to ACh), 0% in assay [3] and 1% in assay [4].
`CCc1noc(C2CC3(C2)CN(C2CCC4(CC2)C(=O)Nc2ccccc24)C3)n1` (single isomer, unassigned) [25-1 Isomer 1]: the EC50 in assay [1] (setting [5]) was 617 nM; in assay [2] (setting [6]) it was 155 nM; in assay [3], greater than 20000 nM; in assay [4], greater than 20000 nM. Further, the Emax in assay [1] (Emax relative to ACh) came out at 43%; in assay [2] (Emax relative to ACh), 70%; in assay [3], 13%; in assay [4], 6%.
Take `CCOC(=O)N1CCCN(C2CCC3(CC2)C(=O)Nc2cc(C)ccc23)CC1` (single isomer, unassigned) [4-6 isomer 2]: the “M1 % Emax cf. ACh” value in assay [1] (CHO cells stably expressing human M1, Emax relative to ACh) came to 130%. In addition, the EC50 in assay [1] (setting [5]) is 36.3 nM; in assay [2] (setting [6]), 75.9 nM; in assay [3], greater than 15800 nM; in assay [4], greater than 15800 nM. The “M4 % Emax cf. ACh” value in assay [2] (CHO cells stably expressing human M4, Emax relative to ACh) is reported as 116%. Moreover, the Emax in assay [3] came out at 39%; in assay [4], 17%.
Turning to `CCOC(=O)N[C@@H]1CCN(C2CCC(C#N)(c3ccccc3)CC2)C1` (single isomer, unassigned) [1-2 Isomer 2], the EC50 in assay [1] (setting [5]) was 209 nM; in assay [2] (setting [6]), 741 nM; in assay [3] it was greater than 20000 nM; in assay [4], greater than 20000 nM. The Emax in assay [1] (Emax relative to ACh) turned out to be 102%; in assay [2] (Emax relative to ACh) it was 52%; in assay [3] it was 23%; in assay [4], 1%.
As for `CCOC(=O)N1CCCN(C2CCC(C#N)(c3ccc(Br)cn3)CC2)CC1` (single isomer, unassigned) [3-17 Isomer 1], the EC50 is 3.02 nM in assay [1] (setting [5]), 72.4 nM in assay [2] (setting [6]), greater than 20000 nM in assay [3] and greater than 20000 nM in assay [4]. Besides, the Emax stood at 92% in assay [1] (Emax relative to ACh), 80% in assay [2] (Emax relative to ACh), 0% in assay [3] and 0% in assay [4].
On to `CCOC(=O)N1CCCN(C2CCC(C#N)(c3ccc(Cl)cc3)CC2)CC1` (mixture of isomers) [3-6 mixture of isomers], for which the EC50 was 9.55 nM in assay [1] (setting [5]), 100 nM in assay [2] (setting [6]), greater than 20000 nM in assay [3] and greater than 20000 nM in assay [4]. In addition, the Emax in assay [1] (Emax relative to ACh) is 105%; in assay [2] (Emax relative to ACh), 62%; in assay [3] it was 11%; in assay [4], 38%.
For `CCOC(=O)N1CCCN(C2CCC(C#N)(c3ccccc3Cl)CC2)CC1` (mixture of isomers) [3-4 mixture of isomers], the EC50 in assay [1] (setting [5]) is 295 nM; in assay [2] (setting [6]), 832 nM; in assay [3], greater than 20000 nM; in assay [4], greater than 20000 nM. Besides, the Emax in assay [1] (Emax relative to ACh) was determined as 86%; in assay [2] (Emax relative to ACh) it was 46%; in assay [3], 12%; in assay [4], 40%.
Take `CCOC(=O)N1CC2CN(C3CCC(C#N)(c4ccccc4)CC3)CCC21` (single isomer, unassigned) [17-1 Isomer 2]: the EC50 in assay [1] (setting [5]) is 97.7 nM; in assay [2] (setting [6]), 251 nM; in assay [3] it was greater than 20000 nM; in assay [4] it was greater than 20000 nM. For the same compound, the Emax came to 111% in assay [1] (Emax relative to ACh), 61% in assay [2] (Emax relative to ACh), 9% in assay [3] and 9% in assay [4].
As to `CCOC(=O)N1CCCN(C2CCC(C#N)(c3cccc(Cl)c3)CC2)CC1` (mixture of isomers) [3-5 mixture of isomers], the EC50 was 83.2 nM in assay [1] (setting [5]), 309 nM in assay [2] (setting [6]), greater than 20000 nM in assay [3] and greater than 20000 nM in assay [4]. The Emax turned out to be 101% in assay [1] (Emax relative to ACh), 47% in assay [2] (Emax relative to ACh), 5% in assay [3] and 36% in assay [4].
On to `CCOC(=O)N1CCCN(C2CCC(C#N)(c3ccc(Cl)cn3)CC2)CC1` (mixture of isomers) [3-16 mixture of isomers], for which the EC50 was 6.61 nM in assay [1] (setting [5]), 126 nM in assay [2] (setting [6]), greater than 20000 nM in assay [3] and greater than 20000 nM in assay [4]. Besides, the Emax in assay [1] (Emax relative to ACh) came out at 103%; in assay [2] (Emax relative to ACh) it was 90%; in assay [3], 10%; in assay [4], 39%.
With `CCOC(=O)N1CCCN(C2CCC(C#N)(c3ccc(OCC)cn3)CC2)CC1` (single isomer, unassigned) [3-20 Isomer 2], the EC50 was 11.5 nM in assay [1] (setting [5]), greater than 20000 nM in assay [2] (setting [6]), greater than 20000 nM in assay [3] and greater than 20000 nM in assay [4]. In addition, the maximal effect (Emax) is 139% in assay [1] (Emax relative to ACh), 7% in assay [2] (Emax relative to ACh), 27% in assay [3] and 2% in assay [4].
With `CCc1noc([C@H]2CC[C@@H](NC3CCC(C#N)(c4ccccc4)CC3)C2)n1` (single isomer, unassigned) [19-2 Isomer 2], the EC50 in assay [1] (setting [5]) is 191 nM; in assay [2] (setting [6]), 138 nM; in assay [3], 2400 nM; in assay [4], greater than 20000 nM. Moreover, the Emax in assay [1] (Emax relative to ACh) amounted to 118%; in assay [2] (Emax relative to ACh), 96%; in assay [3], 35%; in assay [4] it was 5%.
As to `CCOC(=O)N1CCC2(CCN(C3CCC4(CC3)C(=O)N(C(=O)OCC)c3ccccc34)CC2)C1` (single isomer, unassigned) [12-2 isomer 1], the EC50 is 25.7 nM in assay [1] (setting [5]), 10.7 nM in assay [2] (setting [6]), greater than 20000 nM in assay [3] and greater than 20000 nM in assay [4]. The Emax in assay [1] (Emax relative to ACh) worked out at 65%; in assay [2] (Emax relative to ACh) it was 48%; in assay [3] it was 27%; in assay [4], 0%.
Consider `CCOC(=O)N[C@H]1CCN(C2CCC3(CC2)C(=O)Nc2ncc(Cl)cc23)C1` (single isomer, unassigned) [2-17 isomer 1], for which the EC50 in assay [1] (setting [5]) is 56.2 nM; in assay [2] (setting [6]), greater than 20000 nM; in assay [3] it was greater than 20000 nM; in assay [4], greater than 20000 nM. The Emax in assay [1] (Emax relative to ACh) amounted to 48%; in assay [2] (Emax relative to ACh) it was 18%; in assay [3], 7%; in assay [4] it was 7%.
